Assay results published in US11236092B2, “Spiro-condensed pyrrolidine derivatives as deubiquitylating enzymes (DUB) inhibitors” (MISSION THERAPEUTICS LIMITED, priority 2016, dated 2022).

molecular target: Cezanne 1 (Homo sapiens (Human), UniProt Q6GQQ9); experiment: Cezanne 1 biochemical IC50 assay (fluorescence polarisation); settings: FLAG-Cezanne 1; enzyme and compound incubated 30 min at room temp; 50 nM TAMRA labelled peptide linked to ubiquitin as substrate; read after 2 hr; read-out: IC50 range
Description: Expression and Purification of Cezanne 1
The Cezanne 1 construct was PCR amplified and cloned into a pFLAG-CMV-6c vector (Sigma-Aldrich) with an N-terminal FLAG tag. HEK293T cells were transfected with FLAG-Cezanne 1 using TransIT-LT1 transfection reagent (Mirus) according to the manufacturer's instructions. Cells were harvested 48 hours after transfection. […] The resin was washed two times with low salt buffer and one time with high salt buffer (20 mM Tris, pH 7.5, 500 mM NaCl, 0.5 mM EDTA, 5 mM beta-mercaptoethanol, protease inhibitors (complete mini, Roche) and phosphatase inhibitors (PhosSTOP mini, Roche). To elute the bound Cezanne 1, elution buffer (10 mM Tris, pH 7.5, 150 mM NaCl, 0.5 mM EDTA, 10% glycerol, 0.5% NP40, 5 mM beta-mercaptoethanol, 0.15 mg/ml 3X FLAG peptide (Sigma-Aldrich)) was added to the resin and incubated at 4° C. for 2.5 hours while rotating. The resin was centrifuged at 4000 rpm for 30 seconds, and the supernatant containing purified FLAG-Cezanne 1 was removed and stored at −80° C.
Cezanne 1 Biochemical IC50 Assay
Dilution plates were prepared at 21 times the final concentration (2100 μM for a final concentration of 100 μM) in 50% DMSO in a 96-well polypropylene V-bottom plate (Greiner #651201). A typical 8-point dilution series to be 100, 30, 10, 3, 1, 0.3, 0.1, 0.03 μM final. Reactions were performed in duplicate in black 384 well plates (small volume, Greiner 784076) in a final reaction volume of 21 μl. Either 1 μl of 50% DMSO or diluted compound was added to the plate. Cezanne 1 was diluted in reaction buffer (40 mM Tris, pH 7.5, 0.005% Tween 20, 0.5 mg/ml BSA, 5 mM—beta-mercaptoethanol) to the equivalent of 0.005 μl/well and 10 μl of diluted Cezanne 1 was added to the compound. Enzyme and compound were incubated for 30 min at room temp. Reactions were initiated by the addition of 50 nM of TAMRA labelled peptide linked to ubiquitin via an iso-peptide bond as fluorescence polarisation substrate. Reactions were read immediately after addition of substrate and following a 2 hr incubation at room temperature. Readings were performed on a Pherastar Plus (BMG Labtech). λ Excitation 540 nm; λ Emission 590 nm.

Cezanne 1, sequence (Q6GQQ9 whole entry): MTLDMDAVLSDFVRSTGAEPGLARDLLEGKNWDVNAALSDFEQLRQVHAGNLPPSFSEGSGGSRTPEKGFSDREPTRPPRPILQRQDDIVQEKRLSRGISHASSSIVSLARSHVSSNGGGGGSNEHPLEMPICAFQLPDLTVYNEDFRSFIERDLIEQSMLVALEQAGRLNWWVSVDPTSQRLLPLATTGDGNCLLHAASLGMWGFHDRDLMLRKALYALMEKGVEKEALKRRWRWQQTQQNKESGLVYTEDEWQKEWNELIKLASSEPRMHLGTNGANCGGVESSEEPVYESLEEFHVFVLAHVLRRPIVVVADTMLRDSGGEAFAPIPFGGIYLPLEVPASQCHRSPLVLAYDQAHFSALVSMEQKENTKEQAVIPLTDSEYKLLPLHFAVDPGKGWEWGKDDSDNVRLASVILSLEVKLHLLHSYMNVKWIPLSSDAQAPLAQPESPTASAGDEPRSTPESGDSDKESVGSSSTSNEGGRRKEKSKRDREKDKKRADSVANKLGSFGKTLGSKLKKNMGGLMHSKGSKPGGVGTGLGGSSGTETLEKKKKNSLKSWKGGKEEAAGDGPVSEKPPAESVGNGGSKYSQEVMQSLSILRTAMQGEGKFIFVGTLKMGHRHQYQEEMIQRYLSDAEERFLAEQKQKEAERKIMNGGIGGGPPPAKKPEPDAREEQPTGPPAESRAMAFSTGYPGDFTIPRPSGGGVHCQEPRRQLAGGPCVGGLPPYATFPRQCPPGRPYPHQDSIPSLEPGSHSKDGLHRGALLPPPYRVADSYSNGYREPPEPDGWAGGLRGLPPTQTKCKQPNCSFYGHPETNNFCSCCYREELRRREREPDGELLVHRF

Substance | IC50 [µM]
7′-(2-Methylpyridin-4-yl)-2′-oxo-1′,4′-dihydro-2′H-spiro┌pyrrolidine-3,3′-quinoline┐-1-carbonitrile [Example 34] | 1 to 10
3-(1-Cyano-2′-oxo-1′4′-dihydro-2′H-spiro┌pyrrolidine-3,3′-quinolin┐-7′-yl)-N,N-dimethylbenzamide [Example 30] | 0.1 to 1
2′-Oxo-7′-(4-phenoxyphenyl)-l′,4′-dihydro-2′H-spiro┌pyrrolidine-3,3′-quinoline┐-1-carbonitrile [Example 11] | 1 to 10
7′-(1-Methyl-1H-pyrazol-5-yl)-2′-oxo-1′,4′-dihydro-2′H-spiro┌pyrrolidine-3,3′-quinoline┐-1-carbonitrile [Example 10] | 1 to 10
7′-(3-Cyanophenyl)-2′-oxo-l′,4′-dihydro-2′H-spiro┌pyrrolidine-3,3′-quinoline┐-1-carbonitrile [Example 9] | 1 to 10
